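In this assay, cells in 96-well plates receive the compound at five concentrations for 48 hours. Endpoints are linearly interpolated between the surrounding concentrations. GI50 marks 50% less growth.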 Activity calls are given as the source filed them. Rule as the data show it: active = GI50 up to about 1.1 µM and inactive = higher.
Assays:
Test in all cases: NCI tumour cell line growth inhibition, 48 h
K562 = tested on: K562
LOX IMVI = tested on: LOX IMVI
Malme-3M = tested on: Malme-3M
U-251 = tested on: U-251
A549 = tested on: A549
HT-29 = tested on: HT-29
CCRF-CEM = tested on: CCRF-CEM
KM12 = tested on: KM12
RXF 393 = tested on: RXF 393
NCI-H460 = tested on: NCI-H460
SF-539 = tested on: SF-539
HL-60 = tested on: HL-60
NCI-H522 = tested on: NCI-H522
MOLT-4 = tested on: MOLT-4
NCI-H226 = tested on: NCI-H226
COLO 205 = tested on: COLO 205
HCT-15 = tested on: HCT-15
NCI/ADR-RES = tested on: NCI/ADR-RES
A498 = tested on: A498
DU-145 = tested on: DU-145
SK-MEL-28 = tested on: SK-MEL-28
ACHN = tested on: ACHN
SN12C = tested on: SN12C
CAKI-1 = tested on: CAKI-1
SK-MEL-2 = tested on: SK-MEL-2
MCF7 = tested on: MCF7
HOP-92 = tested on: HOP-92
OVCAR-4 = tested on: OVCAR-4
EKVX = tested on: EKVX
HOP-62 = tested on: HOP-62
OVCAR-5 = tested on: OVCAR-5
UACC-257 = tested on: UACC-257
PC-3 = tested on: PC-3
BT-549 = tested on: BT-549
RPMI-8226 = tested on: RPMI-8226
SK-MEL-5 = tested on: SK-MEL-5
SW-620 = tested on: SW-620
786-0 = tested on: 786-0
M14 = tested on: M14
MDA-N = tested on: MDA-N
UO-31 = tested on: UO-31
SNB-75 = tested on: SNB-75
SR = tested on: SR
NCI-H23 = tested on: NCI-H23
OVCAR-8 = tested on: OVCAR-8
Hs-578T = tested on: Hs-578T
TK-10 = tested on: TK-10
HCT-116 = tested on: HCT-116
SF-268 = tested on: SF-268
HCC 2998 = tested on: HCC 2998
IGROV-1 = tested on: IGROV-1
MDA-MB-435 = tested on: MDA-MB-435
SNB-19 = tested on: SNB-19
MDA-MB-231 = tested on: MDA-MB-231
SF-295 = tested on: SF-295

BrCC(Br)(c1ccccc1)c1ccccc1-c1cc(-c2ccccc2)cc(-c2ccccc2)n1 (stereo not given)
GI50 (K562): 893 nM (active) | GI50 (LOX IMVI): 2.29 µM (inactive) | GI50 (Malme-3M): 3.16 µM (inactive) | GI50 (U-251): 1.48 µM (inactive) | GI50 (A549): 4.71 µM (inactive) | GI50 (HT-29): 2.25 µM (inactive) | GI50 (CCRF-CEM): 3.66 µM (inactive) | GI50 (KM12): 3.13 µM (inactive) | GI50 (RXF 393): 2 µM (inactive) | GI50 (NCI-H460): 3.38 µM (inactive) | GI50 (SF-539): 4.3 µM (inactive) | GI50 (HL-60): 1.07 µM (active) | GI50 (NCI-H522): 2.33 µM (inactive) | GI50 (MOLT-4): 3.26 µM (inactive) | GI50 (NCI-H226): 3.72 µM (inactive) | GI50 (COLO 205): 1.43 µM (inactive) | GI50 (HCT-15): 15.2 µM | GI50 (NCI/ADR-RES): 33.9 µM (inactive) | GI50 (A498): 4.48 µM (inactive) | GI50 (DU-145): 4.12 µM (inactive) | GI50 (SK-MEL-28): 4.46 µM (inactive) | GI50 (ACHN): 7.01 µM (inactive) | GI50 (SN12C): 12.3 µM (inactive) | GI50 (CAKI-1): 5.87 µM (inactive) | GI50 (SK-MEL-2): 1.89 µM (inactive) | GI50 (MCF7): 1.09 µM (active) | GI50 (HOP-92): 2.48 µM (inactive) | GI50 (OVCAR-4): 4.05 µM (inactive) | GI50 (EKVX): 3.85 µM (inactive) | GI50 (HOP-62): 3.55 µM (inactive) | GI50 (OVCAR-5): 3.67 µM (inactive) | GI50 (UACC-257): 2.04 µM (inactive) | GI50 (PC-3): 2.59 µM (inactive) | GI50 (BT-549): 2.51 µM (inactive) | GI50 (RPMI-8226): 908 nM (active) | GI50 (SK-MEL-5): 1.55 µM (inactive) | GI50 (SW-620): 3.16 µM (inactive) | GI50 (786-0): 3.64 µM (inactive) | GI50 (M14): 4.38 µM (inactive) | GI50 (MDA-N): 3.01 µM (inactive) | GI50 (UO-31): 10.7 µM (inactive) | GI50 (SNB-75): 1.27 µM (inactive) | GI50 (SR): 3.89 µM (inactive) | GI50 (NCI-H23): 3.94 µM (inactive) | GI50 (OVCAR-8): 3.06 µM (inactive) | GI50 (Hs-578T): 4.52 µM (inactive) | GI50 (TK-10): 5.82 µM (inactive) | GI50 (HCT-116): 2.81 µM (inactive) | GI50 (SF-268): 2.36 µM (inactive) | GI50 (HCC 2998): 2.05 µM (inactive) | GI50 (IGROV-1): 3.2 µM (inactive) | GI50 (MDA-MB-435): 1.84 µM (inactive) | GI50 (SNB-19): 4.86 µM (inactive) | GI50 (MDA-MB-231): 3.15 µM (inactive) | GI50 (SF-295): 2.9 µM (inactive)
